# Experimental data as given in patent US9000029B2, “Proline sulfonamide derivatives as orexin receptor antagonists” (Actelion Pharmaceuticals Ltd., priority 2010, dated 2015).
# pIC50: −log10 of the molar value.
# Columns and labels:
# human orexin-2 receptor = human orexin-2 receptor (Homo sapiens (Human), UniProt O43614); test: Intracellular calcium measurements (FLIPR), antagonism of orexin-A response; format: cell-based; settings: CHO cells, 3 nM orexin-A, compound incubation 10 min; read-out: IC50 Ox2
# human orexin-2 receptor, sequence (O43614 whole entry): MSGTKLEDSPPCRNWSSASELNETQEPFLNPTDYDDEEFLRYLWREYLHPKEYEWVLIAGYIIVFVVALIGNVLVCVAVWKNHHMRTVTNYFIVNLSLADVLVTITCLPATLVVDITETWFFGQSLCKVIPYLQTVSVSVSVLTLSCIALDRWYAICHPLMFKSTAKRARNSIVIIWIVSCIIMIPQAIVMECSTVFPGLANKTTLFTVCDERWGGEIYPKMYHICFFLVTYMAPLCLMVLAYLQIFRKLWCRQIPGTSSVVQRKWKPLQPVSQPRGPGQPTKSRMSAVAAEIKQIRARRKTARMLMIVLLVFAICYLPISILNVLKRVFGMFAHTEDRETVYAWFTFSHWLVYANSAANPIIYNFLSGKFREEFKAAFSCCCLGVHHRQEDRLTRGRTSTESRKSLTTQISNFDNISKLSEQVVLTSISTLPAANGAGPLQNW
# Description: (§1) In Vitro Assay: Intracellular Calcium Measurements:
# (§2) Chinese hamster ovary (CHO) cells expressing the human orexin-1 receptor and the human orexin-2 receptor, respectively, are grown in culture medium (Ham F-12 with L-Glutamine) containing 300 μg/ml G418, 100 U/ml penicillin, 100 μg/ml streptomycin and 10% heat inactivated fetal calf serum (FCS). The cells are seeded at 20'000 cells/well into 384-well black clear bottom sterile plates (Greiner). The seeded plates are incubated overnight at 37° C. in 5% CO2.
# (§3) Human orexin-A as an agonist is prepared as 1 mM stock solution in MeOH: water (1:1), diluted in HBSS containing 0.1% bovine serum albumin (BSA), NaHCO3: 0.375 g/l and 20 mM HEPES for use in the assay at a final concentration of 3 nM.
# (§4) Antagonists are prepared as 10 mM stock solution in DMSO, then diluted in 384-well plates using DMSO followed by a transfer of the dilutions into in HBSS containing 0.1% bovine serum albumin (BSA), NaHCO3: 0.375 g/l and 20 mM HEPES. On the day of the assay, 50 μl of staining buffer (HBSS containing 1% FCS, 20 mM HEPES, NaHCO3: 0.375 g/l, 5 mM probenecid (Sigma) and 3 μM of the fluorescent calcium indicator fluo-4 AM (1 mM stock solution in DMSO, containing 10% pluronic) is added to each well. The 384-well cell-plates are incubated for 50 min at 37° C. in 5% CO2 followed by equilibration at RT for 30 min before measurement.
# (§5) Within the Fluorescent Imaging Plate Reader (FLIPR Tetra, Molecular Devices), antagonists are added to the plate in a volume of 10 μl/well, incubated for 10 min or (where explicitly indicated) for 120 min and finally 10 μl/well of agonist is added. Fluorescence is measured for each well at 1 second intervals, and the height of each fluorescence peak is compared to the height of the fluorescence peak induced by 3 nM orexin-A with vehicle in place of antagonist. The IC50 value (the concentration of compound needed to inhibit 50% of the agonistic response) is determined and may be normalized using the obtained IC50 value of a on-plate reference compound. Optimized conditions were achieved by adjustment of pipetting speed and cell splitting regime. The calculated IC50 values may fluctuate depending on the daily cellular assay performance. Fluctuations of this kind are known to those skilled in the art.
# human orexin-1 receptor = human orexin-1 receptor (Homo sapiens (Human), UniProt O43613); test: as above; format: cell-based; settings: CHO cells, 3 nM orexin-A, compound incubation 10 min; read-out: IC50 Ox1
# human orexin-1 receptor, sequence (O43613 whole entry): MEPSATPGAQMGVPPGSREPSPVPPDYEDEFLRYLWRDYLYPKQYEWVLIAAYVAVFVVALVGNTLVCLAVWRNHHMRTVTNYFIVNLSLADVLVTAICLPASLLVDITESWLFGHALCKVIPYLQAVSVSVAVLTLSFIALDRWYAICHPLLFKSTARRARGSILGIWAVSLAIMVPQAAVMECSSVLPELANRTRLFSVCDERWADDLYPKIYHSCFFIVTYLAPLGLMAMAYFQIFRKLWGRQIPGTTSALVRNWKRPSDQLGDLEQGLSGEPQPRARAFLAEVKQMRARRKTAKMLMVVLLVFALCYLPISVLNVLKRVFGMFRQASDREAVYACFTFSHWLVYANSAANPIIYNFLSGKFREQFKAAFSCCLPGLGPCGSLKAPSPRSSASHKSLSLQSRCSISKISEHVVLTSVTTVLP
# Description: as §1, §2, §3, §4, §5
pIC50 (human orexin-2 receptor),pIC50 (human orexin-1 receptor),SMILES
8.00,7.70,"CSc1cccc(NC(=O)[C@@H]2CCCN2S(=O)(=O)c2ccc(Br)s2)c1 [Example 1, (S)-1-(5-Bromo-thiophene-2-sulfonyl)-pyrrolidine-2-carboxylic acid (3-methylsulfanyl-phenyl)-amide]"
6.98,6.83,"O=C(Nc1cccc(OC(F)(F)F)c1)[C@@H]1CCCN1S(=O)(=O)c1ccc(Br)s1 [Example 2, (S)-1-(5-Bromo-thiophene-2-sulfonyl)-pyrrolidine-2-carboxylic acid (3-trifluoromethoxy-phenyl)-amide]"
8.10,7.55,"COc1cccc(S(=O)(=O)N2CCC[C@H]2C(=O)Nc2cccc(SC)c2)c1 [Example 3, (S)-1-(3-Methoxy-benzenesulfonyl)-pyrrolidine-2-carboxylic acid (3-methylsulfanyl-phenyl)-amide]"
7.33,7.04,"CCCc1ccc(S(=O)(=O)N2CCC[C@H]2C(=O)Nc2cccc(SC)c2)cc1 [Example 4, (S)-1-(4-Propyl-benzenesulfonyl)-pyrrolidine-2-carboxylic acid (3-methylsulfanyl-phenyl)-amide]"
7.57,6.89,"CSc1cccc(NC(=O)[C@@H]2CCCN2S(=O)(=O)c2ccc3c(c2)OCCN3C)c1 [Example 5, (S)-1-(4-Methyl-3,4-dihydro-2H-benzo[1,4]oxazine-7-sulfonyl)-pyrrolidine-2-carboxylic acid (3-methylsulfanyl-phenyl)-amide]"
8.52,7.68,"COc1ccc(S(=O)(=O)N2CCC[C@H]2C(=O)Nc2cccc(SC)c2)cc1 [Example 6, (S)-1-(4-Methoxy-benzenesulfonyl)-pyrrolidine-2-carboxylic acid (3-methylsulfanyl-phenyl)-amide]"
8.70,8.10,"CSc1cccc(NC(=O)[C@@H]2CCCN2S(=O)(=O)c2cccc(Cl)c2)c1 [Example 7, (S)-1-(3-Chloro-benzenesulfonyl)-pyrrolidine-2-carboxylic acid (3-methylsulfanyl-phenyl)-amide]"
7.77,7.20,"CSc1cccc(NC(=O)[C@@H]2CCCN2S(=O)(=O)c2ccc(C(F)(F)F)cc2)c1 [Example 8, (S)-1-(4-Trifluoromethyl-benzenesulfonyl)-pyrrolidine-2-carboxylic acid (3-methylsulfanyl-phenyl)-amide]"
8.05,7.82,"CSc1cccc(NC(=O)[C@@H]2CCCN2S(=O)(=O)c2ccc(Cl)cc2)c1 [Example 9, (S)-1-(4-Chloro-benzenesulfonyl)-pyrrolidine-2-carboxylic acid (3-methylsulfanyl-phenyl)-amide]"
8.52,7.24,"COc1ccc(S(=O)(=O)N2CCC[C@H]2C(=O)Nc2cccc(SC)c2)cc1OC [Example 10, (S)-1-(3,4-Dimethoxy-benzenesulfonyl)-pyrrolidine-2-carboxylic acid (3-methylsulfanyl-phenyl)-amide]"
8.70,8.15,"CSc1cccc(NC(=O)[C@@H]2CCCN2S(=O)(=O)c2cccc(Br)c2)c1 [Example 11, (S)-1-(3-Bromo-benzenesulfonyl)-pyrrolidine-2-carboxylic acid (3-methylsulfanyl-phenyl)-amide]"
8.52,8.30,"CSc1cccc(NC(=O)[C@@H]2CCCN2S(=O)(=O)c2ccc(C)c(Cl)c2)c1 [Example 12, (S)-1-(3-Chloro-4-methyl-benzenesulfonyl)-pyrrolidine-2-carboxylic acid (3-methylsulfanyl-phenyl)-amide]"
8.00,7.66,"CSc1cccc(NC(=O)[C@@H]2CCCN2S(=O)(=O)c2ccc(Br)cc2)c1 [Example 13, (S)-1-(4-Bromo-benzenesulfonyl)-pyrrolidine-2-carboxylic acid (3-methylsulfanyl-phenyl)-amide]"
8.70,8.15,"CSc1cccc(NC(=O)[C@@H]2CCCN2S(=O)(=O)c2ccc(Cl)c(Cl)c2)c1 [Example 14, (S)-1-(3,4-Dichloro-benzenesulfonyl)-pyrrolidine-2-carboxylic acid (3-methylsulfanyl-phenyl)-amide]"
6.79,6.48,"O=C(Nc1ccccc1)[C@@H]1CCCN1S(=O)(=O)c1ccc(Br)s1 [Example 15, (S)-1-(5-Bromo-thiophene-2-sulfonyl)-pyrrolidine-2-carboxylic acid phenylamide]"
7.70,7.19,"COc1ccc(S(=O)(=O)N2CCC[C@H]2C(=O)Nc2cc(Cl)cc(Cl)c2)cc1 [Example 16, (S)-1-(4-Methoxy-benzenesulfonyl)-pyrrolidine-2-carboxylic acid (3,5-dichloro-phenyl)-amide]"
8.05,7.26,"COc1ccc(S(=O)(=O)N2CCC[C@H]2C(=O)Nc2cccc(C(F)(F)F)c2)cc1 [Example 17, (S)-1-(4-Methoxy-benzenesulfonyl)-pyrrolidine-2-carboxylic acid (3-trifluoromethyl-phenyl)-amide]"
7.51,7.08,"COc1ccc(S(=O)(=O)N2CCC[C@H]2C(=O)Nc2cccc(Cl)c2)cc1 [Example 18, (S)-1-(4-Methoxy-benzenesulfonyl)-pyrrolidine-2-carboxylic acid (3-chloro-phenyl)-amide]"
7.43,7.10,"COc1ccc(S(=O)(=O)N2CCC[C@H]2C(=O)Nc2cccc(Br)c2)cc1 [Example 19, (S)-1-(4-Methoxy-benzenesulfonyl)-pyrrolidine-2-carboxylic acid (3-bromo-phenyl)-amide]"
7.77,6.67,"COc1ccc(S(=O)(=O)N2CCC[C@H]2C(=O)Nc2cccc(C)c2)cc1 [Example 20, (S)-1-(4-Methoxy-benzenesulfonyl)-pyrrolidine-2-carboxylic acid m-tolylamide]"
7.33,6.74,"COc1ccc(S(=O)(=O)N2CCC[C@H]2C(=O)Nc2cccc(OC)c2)cc1 [Example 21, (S)-1-(4-Methoxy-benzenesulfonyl)-pyrrolidine-2-carboxylic acid (3-methoxy-phenyl)-amide]"
7.72,6.63,"COc1ccc(S(=O)(=O)N2CCC[C@H]2C(=O)Nc2cccc(N(C)C)c2)cc1 [Example 22, (S)-1-(4-Methoxy-benzenesulfonyl)-pyrrolidine-2-carboxylic acid (3-dimethylamino-phenyl)-amide]"
7.54,6.76,"COc1ccc(S(=O)(=O)N2CCC[C@H]2C(=O)Nc2ccc(C)c(C)c2)cc1 [Example 23, (S)-1-(4-Methoxy-benzenesulfonyl)-pyrrolidine-2-carboxylic acid (3,4-dimethyl-phenyl)-amide]"
6.77,6.57,"COc1ccc(S(=O)(=O)N2CCC[C@H]2C(=O)Nc2cccc3ccccc23)cc1 [Example 24, (S)-1-(4-Methoxy-benzenesulfonyl)-pyrrolidine-2-carboxylic acid naphthalen-1-ylamide]"
7.01,6.00,"COc1ccc(S(=O)(=O)N2CCC[C@H]2C(=O)Nc2cccc(C#N)c2)cc1 [Example 25, (S)-1-(4-Methoxy-benzenesulfonyl)-pyrrolidine-2-carboxylic acid (3-cyano-phenyl)-amide]"
7.80,6.92,"COc1ccc(S(=O)(=O)N2CCC[C@H]2C(=O)Nc2cc(OC)cc(OC)c2)cc1 [Example 27, (S)-1-(4-Methoxy-benzenesulfonyl)-pyrrolidine-2-carboxylic acid (3,5-dimethoxy-phenyl)-amide]"
6.65,6.52,"COc1ccc(S(=O)(=O)N2CCC[C@H]2C(=O)Nc2cc(C)ccc2Cl)cc1 [Example 28, (S)-1-(4-Methoxy-benzenesulfonyl)-pyrrolidine-2-carboxylic acid (2-chloro-5-methyl-phenyl)-amide]"
6.89,6.20,"COc1ccc(S(=O)(=O)N2CCC[C@H]2C(=O)Nc2cc(OC)ccc2Cl)cc1 [Example 29, (S)-1-(4-Methoxy-benzenesulfonyl)-pyrrolidine-2-carboxylic acid (2-chloro-5-methoxy-phenyl)-amide]"
7.17,7.07,"COc1ccc(S(=O)(=O)N2CCC[C@H]2C(=O)Nc2cc(C(F)(F)F)cc(C(F)(F)F)c2)cc1 [Example 30, (S)-1-(4-Methoxy-benzenesulfonyl)-pyrrolidine-2-carboxylic acid (3,5-bis-trifluoromethyl-phenyl)-amide]"
